These results are taken from patent US5674905A, “Bicyclooctane and bicycloheptane derivatives” (James Black Foundation Limited, priority 1992, dated 1997).

In one assay the target is T1, CCKB receptor (Mus musculus, UniProt P56481).
T1 construct: The cortex was dissected, weighed and homogenised in 40 ml ice-cold buffer; from tissue; host or cells: cerebral cortex membranes of male CD1 mice (Charles River)
T1 sequence (P56481 1-453): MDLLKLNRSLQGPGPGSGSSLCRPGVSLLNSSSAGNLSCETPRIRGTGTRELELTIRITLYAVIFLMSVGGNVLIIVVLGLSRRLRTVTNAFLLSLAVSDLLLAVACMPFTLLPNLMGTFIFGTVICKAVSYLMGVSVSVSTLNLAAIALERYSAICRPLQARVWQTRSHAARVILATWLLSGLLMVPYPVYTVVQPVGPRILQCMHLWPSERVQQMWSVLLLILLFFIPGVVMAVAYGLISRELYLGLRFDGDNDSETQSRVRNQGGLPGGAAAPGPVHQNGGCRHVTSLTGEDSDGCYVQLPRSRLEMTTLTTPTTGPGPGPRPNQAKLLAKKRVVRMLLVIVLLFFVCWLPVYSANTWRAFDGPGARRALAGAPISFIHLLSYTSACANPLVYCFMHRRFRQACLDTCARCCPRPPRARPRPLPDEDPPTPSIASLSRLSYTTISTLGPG
Put plainly: radioligand binding assay at the CCKB receptor in mouse cortical membranes ([125I]-CCK8S). The conditions noted are these: 150 min at 21±3°. As for the experimental part: The compounds of the examples were tested for binding at the CCKB receptor in mouse cortical membranes by means of a radioligand binding assay. The procedure was as follows:
The whole brains from male mice (CD1 22-25 g; Charles River) were removed and placed in ice-cold buffer (pH7.2 @ 21±3 °) of the following composition (mM); 10 HEPES, 130 NaCl, 4.7 KCl, 5 MgCl2, 1 EDTA and containing 0.25 g.1^-1 bacitracin. The cortex was dissected, weighed and homogenised in 40 ml ice-cold buffer using a Teflon-in-glass homogeniser. The homogenate was centrifuged at 39,800 g for 20 min at @ 4°, the supernatant discarded and the pellet resuspended by homogenisation in fresh buffer. The homogenate was recentrifuged (39,800 g; 20 min @4°) and the final pellet was resuspended in HEPES buffer to give a tissue concentration of 2 mg.ml^-1 (original wet weight).
The membranes ([…]) were incubated for 150 min at 21±3° in a final volume of 0.5 ml with HEPES buffer containing [^125 I]-CCK8S (0.05 ml; 200 pM NEN 2200 Ci.mmol^-1) and competing compound. Total and non-specific binding of [^125 I]-CCK8S were defined using 0.05 ml of buffer and 0.05 ml of […] L-365,260, respectively. The assay was terminated by rapid filtration through pre-soaked Whatman GF/B filters using a Brandell Cell harvester. The filters were washed (3×3 ml) with ice-cold 50 mM Tris-HC1 (pH7.4 @ 4° C.) and bound radioactivity determined by counting (1 min.) in a gamma-counter.
`O=C(NCC12CC3CC(CC(C3)C1)C2)C1C2CC(c3ccccc32)C1C(=O)N1CCC[C@@H]1C(=O)O` (mixture of isomers) [Example 59, (±)-endo-cis-6-(2R-carboxy-pyrrolidinocarbonyl)-7-(1-adamantylmethylaminocarbonyl)-2,3-benzobicyclo[2.2.1]heptane]: the “CCKB pKi” value is reported as 5.5. For `O=C(O)CNC(=O)[C@@H]1CCCN1C(=O)C1C2CCC(c3ccccc32)C1C(=O)NCC12CC3CC(CC(C3)C1)C2` (stereo partly drawn) [Example 45, cis-exo-7-(2R-carboxymethylaminocarbonylpyrrolidinocarbonyl)-8-(1-adamantylmethylaminocarbonyl)-2,3-benzobicyclo[2.2.2]octane], the “CCKB pKi” value was 5.6.

Staying with this assay, now noted: 150 min at 21±3°, read-out: CCKB pKi (converted).
In the case of `O=C(NCC12CC3CC(CC(C3)C1)C2)C1C2C=CC(CC2)C1C(=O)N1CCC[C@@H]1C(=O)O` (mixture of isomers) [Example 33, cis-(±)-2-(1-R-carboxy-pyrrolidinocarbonyl)-3-(1-adamantylmethylaminocarbonyl)-bicyclo[2.2.2]oct-5-ene], the Ki was 15800 nM.

As for `O=C(NCC12CC3CC(CC(C3)C1)C2)C1C(C(=O)N2CCC[C@@H]2C(=O)O)C2C=CC1C2(c1ccccc1)c1ccccc1` (mixture of isomers) [Example 53], the Ki was 1580 nM.

As to `O=C(O)C1C2CC(c3ccccc32)C1C(=O)NCC12CC3CC(CC(C3)C1)C2` (mixture of isomers) [Example 57, endo-cis-(±)-7-(1-adamantylmethylaminocarbonyl)-2,3-benzobicyclo[2.2.1]hept-6-carboxylic acid], the Ki is 5010 nM. With `O=C(O)C1C2c3ccccc3C(c3cc4ccccc4cc32)C1C(=O)NCC12CC3CC(CC(C3)C1)C2` (racemic) [Example 14, endo and exo cis-(±)-8-(1-adamantylmethylaminocarbonyl)-2,3-benzo-5,6-(2,3-naphtho)bicyclo[2.2.2]octane-7-carboxylic acid], the Ki was 316 nM.

Take `O=C(NCC12CC3CC(CC(C3)C1)C2)[C@@H]1[C@H](C(=O)O)[C@@H]2C=C[C@H]1c1ccccc12` (relative stereo) [Example 1, exo-(±)-cis-8-(1-adamantylmethylaminocarbonyl)-5,6-benzobicyclo[2.2.2]oct-2-ene-7-carboxylic acid]: the Ki is 3980 nM. Turning to `O=C(NCC1CCCCC1)[C@@H]1[C@H](C(=O)O)[C@@H]2C=C[C@H]1c1ccccc12` (relative stereo) [Example 3, exo-(±)-cis8-(1-cyclohexylmethylaminocarbonyl)-5,6-benzobicyclo[2.2.2]oct-2-ene-7-carboxylic acid], the Ki was 25100 nM. As to `O=C(O)[C@@H]1[C@H](C(=O)NCC2CCCCC2)[C@H]2C=C[C@@H]1c1ccccc12` (relative stereo) [Example 4, endo-(±)-cis-8-(1-cyclohexylmethylaminocarbonyl)-5,6-benzobicyclo[2.2.2]oct-2-ene-7-carboxylic acid], the Ki was 39800 nM. As to `CCCCCCCCNC(=O)[C@@H]1[C@H](C(=O)O)[C@@H]2C=C[C@H]1c1ccccc12` (relative stereo) [Example 5, exo-(±)-cis-8-(octylaminocarbonyl)-5,6-benzobicyclo[2.2.2]oct-2-ene-7-carboxylic acid], the Ki was 12600 nM.

Regarding `CCCCCCCCNC(=O)[C@H]1[C@@H](C(=O)O)[C@@H]2C=C[C@H]1c1ccccc12` (relative stereo) [Example 6, endo-(±)-cis-8-(octylamino-carbonyl)-5,6-benzobicyclo[2.2.2]oct-2-ene-7-carboxylic acid], the Ki was 25100 nM.

Regarding `O=C(NCC12CC3CC(CC(C3)C1)C2)C1C2c3ccccc3C(c3cc4ccccc4cc32)C1C(=O)N1CCC[C@@H]1C(=O)O` (stereo partly drawn) [Example 20, endo and exo cis-7-(2-R-carboxypyrrolidinocarbonyl)-8-(1-adamantylmethylaminocarbonyl)-2,3-benzo-5,6-(2,3-naphtho)bicyclo[2.2.2]octane], the Ki is 158 nM. Still for that read-out and setting: next, `COC(=O)[C@@H]1CCCN1C(=O)C1C2c3ccccc3C(c3cc4ccccc4cc32)C1C(=O)NCC12CC3CC(CC(C3)C1)C2` (stereo partly drawn) [Example 21, endo and exo cis-7-(2-S-methoxy-carbonylpyrrolidinocarbonyl)-8-(1-adamantylmethylaminocarbonyl)-2,3-benzo-5,6-(2,3-naphtho) bicyclo-[2.2.2]octane]: 398 nM; `O=C(NCC12CC3CC(CC(C3)C1)C2)C1C2C=CC(c3ccccc32)C1C(=O)N1C[C@H](O)C[C@@H]1C(=O)O` (stereo partly drawn) [Example 28, endo-cis-7-(2-R-carboxy-4-R-hydroxy-pyrrolidinocarbonyl)-8-(1-adamantylmethylaminocarbonyl)-5,6-benzo-bicyclo[2.2.2]oct-2-ene]: 2000 nM; `COC(=O)[C@H]1CCCN1C(=O)C1C2C=CC(c3ccccc32)C1C(=O)NCC12CC3CC(CC(C3)C1)C2` (stereo partly drawn) [Example 32, exo-cis-7-(2-R-methoxycarbonyl-pyrrolidinocarbonyl)-8-(1-adamantylmethylaminocarbonyl)-5,6-benzo-bicyclo[2.2.2]oct-2-ene]: 316 nM. As to `C[C@H](NC(=O)[C@H]1CCCN1C(=O)C1C2CCC(c3ccccc32)C1C(=O)NCC12CC3CC(CC(C3)C1)C2)C(=O)O` (stereo partly drawn) [Example 40, cis-exo-7-(2R-(1S-carboxyethylaminocarbonyl)-pyrrolidinocarbonyl)-8-(1-adamantylmethylaminocarbonyl)-2,3-benzobicyclo-[2.2.2.]octane], the Ki was 7940 nM. In the case of `C[C@@H](NC(=O)[C@@H]1CCCN1C(=O)C1C2CCC(c3ccccc32)C1C(=O)NCC12CC3CC(CC(C3)C1)C2)C(=O)O` (stereo partly drawn) [Example 44, cis-exo-7-(2S-(1R-carboxyethylaminocarbonyl)-pyrrolidinocarbonyl)-8-(1-adamantylmethylaminocarbonyl)-2,3-benzobicyclo[2.2.2]octane], the Ki was 1000 nM.

In the case of `O=C(O)CNC(=O)[C@H]1CCCN1C(=O)C1C2CCC(c3ccccc32)C1C(=O)NCC12CC3CC(CC(C3)C1)C2` (stereo partly drawn) [Example 46, cis-endo-7-(2R-carboxymethylaminocarbonyl-pyrrolidinocarbonyl)-8-(1-adamantylmethylaminocarbonyl)-2,3-benzobicyclo[2.2.2]octane], the Ki is 398 nM. Still for that read-out and setting: next, `C[C@@H](NC(=O)[C@H]1CCCN1C(=O)C1C2CCC(c3ccccc32)C1C(=O)NCC12CC3CC(CC(C3)C1)C2)C(=O)O` (stereo partly drawn) [Example 47, cis-endo-7-(2R-(1R-carboxyethylaminocarbonyl)-pyrrolidinocarbonyl)-8-(1-adamantylmethylaminocarbonyl)-2,3-benzobicyclo[2.2.2]octane]: 1260 nM; `C[C@H](NC(=O)[C@H]1CCCN1C(=O)C1C2CCC(c3ccccc32)C1C(=O)NCC12CC3CC(CC(C3)C1)C2)C(=O)O` (stereo partly drawn) [Example 48, cis-endo-7-(2R-(1S-carboxyethylaminocarbonyl)-pyrrolidinocarbonyl)-8-(1-adamantylmethylaminocarbonyl)-2,3-benzobicyclo[2.2.2]octane]: 794 nM; `O=C(O)CNC(=O)[C@@H]1CCCN1C(=O)C1C2CCC(c3ccccc32)C1C(=O)NCC12CC3CC(CC(C3)C1)C2` (stereo partly drawn) [Example 49, cis-endo-7-(2S-carboxymethylaminocarbonyl-pyrrolidinocarbonyl)-8-(1-adamantylmethylaminocarbonyl)-2,3-benzobicyclo[2.2.2]octane]: 3980 nM. Still for that read-out and setting: next, `C[C@@H](NC(=O)[C@@H]1CCCN1C(=O)C1C2CCC(c3ccccc32)C1C(=O)NCC12CC3CC(CC(C3)C1)C2)C(=O)O` (stereo partly drawn) [Example 50, cis-endo-7-(2S-(1R-carboxyethylaminocarbonyl)-pyrrolidinocarbonyl)-8-(1-adamantylmethylaminocarbonyl)-2,3-benzobicyclo[2.2.2]octane]: 2510 nM; `C[C@H](NC(=O)[C@@H]1CCCN1C(=O)C1C2CCC(c3ccccc32)C1C(=O)NCC12CC3CC(CC(C3)C1)C2)C(=O)O` (stereo partly drawn) [Example 51, cis-endo-7-(2S-(1S-carboxyethylaminocarbonyl)-pyrrolidinocarbonyl)-8-(1-adamantylmethylaminocarbonyl)-2,3-benzobicyclo[2.2.2]octane]: 5010 nM.
